Assay results taken from the CheMixHub viscosity set.
± gives the uncertainty stated by the source.

Test: xn = mol fraction of the nth substance listed

In the case of `CCCc1ccccc1` + CC(CC(C)(C)C)CC(C)(C)C, the viscosity (293.15 K, 102 kPa, x1 = 0.101) is reported as 1.24 ± 0.02 mPa·s, the viscosity (293.15 K, 102 kPa, x1 = 0.2003) is reported as 1.16 ± 0.02 mPa·s and the viscosity (293.15 K, 102 kPa, x1 = 0.3007) is reported as 1.09 ± 0.02 mPa·s. The viscosity (293.15 K, 102 kPa, x1 = 0.4005) was 1.03 ± 0.02 mPa·s, the viscosity (293.15 K, 102 kPa, x1 = 0.498) was 0.983 ± 0.021 mPa·s and the viscosity (293.15 K, 102 kPa, x1 = 0.6) was 0.939 ± 0.021 mPa·s. For the same compound, the viscosity (293.15 K, 102 kPa, x1 = 0.7) was 0.905 ± 0.021 mPa·s, the viscosity (293.15 K, 102 kPa, x1 = 0.8001) was 0.877 ± 0.021 mPa·s and the viscosity (293.15 K, 102 kPa, x1 = 0.9002) was 0.861 ± 0.021 mPa·s. For the same compound, the viscosity (303.15 K, 102 kPa, x1 = 0.101) was 1.04 ± 0.02 mPa·s, the viscosity (303.15 K, 102 kPa, x1 = 0.2003) was 0.986 ± 0.021 mPa·s and the viscosity (303.15 K, 102 kPa, x1 = 0.3007) was 0.929 ± 0.021 mPa·s. It also gave a viscosity (303.15 K, 102 kPa, x1 = 0.4005) of 0.883 ± 0.021 mPa·s, a viscosity (303.15 K, 102 kPa, x1 = 0.498) of 0.847 ± 0.021 mPa·s and a viscosity (303.15 K, 102 kPa, x1 = 0.6) of 0.815 ± 0.021 mPa·s. For the same compound, the viscosity (303.15 K, 102 kPa, x1 = 0.7) was 0.787 ± 0.021 mPa·s, the viscosity (303.15 K, 102 kPa, x1 = 0.8001) was 0.762 ± 0.021 mPa·s and the viscosity (303.15 K, 102 kPa, x1 = 0.9002) was 0.748 ± 0.021 mPa·s. For the same compound, the viscosity (313.15 K, 102 kPa, x1 = 0.101) was 0.901 ± 0.021 mPa·s, the viscosity (313.15 K, 102 kPa, x1 = 0.2003) was 0.852 ± 0.021 mPa·s and the viscosity (313.15 K, 102 kPa, x1 = 0.3007) was 0.809 ± 0.021 mPa·s. The viscosity (313.15 K, 102 kPa, x1 = 0.4005) was 0.773 ± 0.021 mPa·s, the viscosity (313.15 K, 102 kPa, x1 = 0.498) was 0.744 ± 0.021 mPa·s and the viscosity (313.15 K, 102 kPa, x1 = 0.6) was 0.712 ± 0.021 mPa·s. It also gave a viscosity (313.15 K, 102 kPa, x1 = 0.7) of 0.689 ± 0.021 mPa·s, a viscosity (313.15 K, 102 kPa, x1 = 0.8001) of 0.666 ± 0.021 mPa·s and a viscosity (313.15 K, 102 kPa, x1 = 0.9002) of 0.654 ± 0.021 mPa·s. It also gave a viscosity (323.15 K, 102 kPa, x1 = 0.101) of 0.785 ± 0.021 mPa·s, a viscosity (323.15 K, 102 kPa, x1 = 0.2003) of 0.75 ± 0.021 mPa·s and a viscosity (323.15 K, 102 kPa, x1 = 0.3007) of 0.713 ± 0.021 mPa·s. It also gave a viscosity (323.15 K, 102 kPa, x1 = 0.4005) of 0.685 ± 0.021 mPa·s, a viscosity (323.15 K, 102 kPa, x1 = 0.498) of 0.656 ± 0.021 mPa·s and a viscosity (323.15 K, 102 kPa, x1 = 0.6) of 0.629 ± 0.021 mPa·s. For the same compound, the viscosity (323.15 K, 102 kPa, x1 = 0.7) was 0.609 ± 0.021 mPa·s, the viscosity (323.15 K, 102 kPa, x1 = 0.8001) was 0.589 ± 0.021 mPa·s and the viscosity (323.15 K, 102 kPa, x1 = 0.9002) was 0.578 ± 0.021 mPa·s.
Work on `COc1ccccc1` + ClCCCl yielded a viscosity (298.15 K, 101 kPa, x1 = 0.0971) of 0.8095 ± 0.021 mPa·s, a viscosity (298.15 K, 101 kPa, x1 = 0.1961) of 0.8125 ± 0.021 mPa·s and a viscosity (298.15 K, 101 kPa, x1 = 0.2958) of 0.8228 ± 0.021 mPa·s. For the same compound, the viscosity (298.15 K, 101 kPa, x1 = 0.3963) was 0.8354 ± 0.022 mPa·s, the viscosity (298.15 K, 101 kPa, x1 = 0.4918) was 0.8519 ± 0.022 mPa·s and the viscosity (298.15 K, 101 kPa, x1 = 0.5946) was 0.8754 ± 0.023 mPa·s. The viscosity (298.15 K, 101 kPa, x1 = 0.6933) was 0.9012 ± 0.023 mPa·s, the viscosity (298.15 K, 101 kPa, x1 = 0.7944) was 0.9299 ± 0.024 mPa·s and the viscosity (298.15 K, 101 kPa, x1 = 0.8972) was 0.9672 ± 0.025 mPa·s. The viscosity (303.15 K, 101 kPa, x1 = 0.0971) was 0.7615 ± 0.02 mPa·s, the viscosity (303.15 K, 101 kPa, x1 = 0.1961) was 0.7644 ± 0.02 mPa·s and the viscosity (303.15 K, 101 kPa, x1 = 0.2958) was 0.7712 ± 0.02 mPa·s. For the same compound, the viscosity (303.15 K, 101 kPa, x1 = 0.3963) was 0.7823 ± 0.02 mPa·s, the viscosity (303.15 K, 101 kPa, x1 = 0.4918) was 0.7983 ± 0.021 mPa·s and the viscosity (303.15 K, 101 kPa, x1 = 0.5946) was 0.8183 ± 0.021 mPa·s. For the same compound, the viscosity (303.15 K, 101 kPa, x1 = 0.6933) was 0.8399 ± 0.022 mPa·s, the viscosity (303.15 K, 101 kPa, x1 = 0.7944) was 0.8693 ± 0.023 mPa·s and the viscosity (303.15 K, 101 kPa, x1 = 0.8972) was 0.8983 ± 0.023 mPa·s. The viscosity (303.15 K, 101.3 kPa, x1 = 0.0479) was 0.708 ± 0.012 mPa·s, the viscosity (303.15 K, 101.3 kPa, x1 = 0.2944) was 0.726 ± 0.012 mPa·s and the viscosity (303.15 K, 101.3 kPa, x1 = 0.3833) was 0.74 ± 0.012 mPa·s. The viscosity (303.15 K, 101.3 kPa, x1 = 0.5479) was 0.776 ± 0.013 mPa·s, the viscosity (303.15 K, 101.3 kPa, x1 = 0.6192) was 0.785 ± 0.013 mPa·s and the viscosity (303.15 K, 101.3 kPa, x1 = 0.6717) was 0.797 ± 0.013 mPa·s. It also gave a viscosity (303.15 K, 101.3 kPa, x1 = 0.9751) of 0.896 ± 0.014 mPa·s, a viscosity (308.15 K, 101 kPa, x1 = 0.0971) of 0.7135 ± 0.018 mPa·s and a viscosity (308.15 K, 101 kPa, x1 = 0.1961) of 0.719 ± 0.019 mPa·s. For the same compound, the viscosity (308.15 K, 101 kPa, x1 = 0.2958) was 0.7246 ± 0.019 mPa·s, the viscosity (308.15 K, 101 kPa, x1 = 0.3963) was 0.7333 ± 0.019 mPa·s and the viscosity (308.15 K, 101 kPa, x1 = 0.4918) was 0.7466 ± 0.019 mPa·s. It also gave a viscosity (308.15 K, 101 kPa, x1 = 0.5946) of 0.7639 ± 0.02 mPa·s, a viscosity (308.15 K, 101 kPa, x1 = 0.6933) of 0.7821 ± 0.02 mPa·s and a viscosity (308.15 K, 101 kPa, x1 = 0.7944) of 0.8076 ± 0.021 mPa·s. It also gave a viscosity (308.15 K, 101 kPa, x1 = 0.8972) of 0.834 ± 0.022 mPa·s, a viscosity (313.15 K, 101 kPa, x1 = 0.0971) of 0.6712 ± 0.017 mPa·s and a viscosity (313.15 K, 101 kPa, x1 = 0.1961) of 0.6736 ± 0.017 mPa·s. The viscosity (313.15 K, 101 kPa, x1 = 0.2958) was 0.6785 ± 0.018 mPa·s, the viscosity (313.15 K, 101 kPa, x1 = 0.3963) was 0.6881 ± 0.018 mPa·s and the viscosity (313.15 K, 101 kPa, x1 = 0.4918) was 0.7004 ± 0.018 mPa·s. The viscosity (313.15 K, 101 kPa, x1 = 0.5946) was 0.715 ± 0.019 mPa·s, the viscosity (313.15 K, 101 kPa, x1 = 0.6933) was 0.7319 ± 0.019 mPa·s and the viscosity (313.15 K, 101 kPa, x1 = 0.7944) was 0.7519 ± 0.019 mPa·s. For the same compound, the viscosity (313.15 K, 101 kPa, x1 = 0.8972) was 0.7759 ± 0.02 mPa·s.
`c1ccc2ccccc2c1` + Clc1ccccc1 gave a viscosity (308.15 K, 101 kPa, x1 = 0.3525) of 0.962 ± 0.024 mPa·s, a viscosity (308.15 K, 101 kPa, x1 = 0.4003) of 1.011 ± 0.025 mPa·s and a viscosity (313.15 K, 101 kPa, x1 = 0.3525) of 0.9041 ± 0.023 mPa·s. It also gave a viscosity (313.15 K, 101 kPa, x1 = 0.4003) of 0.945 ± 0.024 mPa·s, a viscosity (318.15 K, 101 kPa, x1 = 0.3525) of 0.8436 ± 0.021 mPa·s and a viscosity (318.15 K, 101 kPa, x1 = 0.4003) of 0.887 ± 0.022 mPa·s. It also gave a viscosity (323.15 K, 101 kPa, x1 = 0.3525) of 0.7981 ± 0.02 mPa·s and a viscosity (323.15 K, 101 kPa, x1 = 0.4003) of 0.832 ± 0.021 mPa·s.
`C1CCOC1` + CCCCCCC showed a viscosity (293.15 K, 101 kPa, x1 = 0.1338) of 0.403 ± 0.015 mPa·s, a viscosity (293.15 K, 101 kPa, x1 = 0.2578) of 0.4075 ± 0.016 mPa·s and a viscosity (293.15 K, 101 kPa, x1 = 0.3733) of 0.413 ± 0.016 mPa·s. It also gave a viscosity (293.15 K, 101 kPa, x1 = 0.4809) of 0.4191 ± 0.016 mPa·s, a viscosity (293.15 K, 101 kPa, x1 = 0.5815) of 0.4285 ± 0.016 mPa·s and a viscosity (293.15 K, 101 kPa, x1 = 0.6758) of 0.4385 ± 0.016 mPa·s. For the same compound, the viscosity (293.15 K, 101 kPa, x1 = 0.7643) was 0.4495 ± 0.017 mPa·s, the viscosity (293.15 K, 101 kPa, x1 = 0.8475) was 0.4619 ± 0.017 mPa·s and the viscosity (293.15 K, 101 kPa, x1 = 0.926) was 0.4751 ± 0.017 mPa·s. The viscosity (298.15 K, 101 kPa, x1 = 0.1338) was 0.3861 ± 0.015 mPa·s, the viscosity (298.15 K, 101 kPa, x1 = 0.2578) was 0.3891 ± 0.015 mPa·s and the viscosity (298.15 K, 101 kPa, x1 = 0.3733) was 0.3935 ± 0.015 mPa·s. It also gave a viscosity (298.15 K, 101 kPa, x1 = 0.4809) of 0.3984 ± 0.015 mPa·s, a viscosity (298.15 K, 101 kPa, x1 = 0.5815) of 0.4061 ± 0.015 mPa·s and a viscosity (298.15 K, 101 kPa, x1 = 0.6758) of 0.4146 ± 0.016 mPa·s. The viscosity (298.15 K, 101 kPa, x1 = 0.7643) was 0.4242 ± 0.016 mPa·s, the viscosity (298.15 K, 101 kPa, x1 = 0.8475) was 0.4356 ± 0.016 mPa·s and the viscosity (298.15 K, 101 kPa, x1 = 0.926) was 0.4465 ± 0.017 mPa·s.
With `CCCCn1cc[n+](C)c1.O=S(=O)([O-])C(F)(F)F` + O the viscosity (308.15 K, 101 kPa, x2 = 0.3999) was 19.95 ± 1.4 mPa·s and the viscosity (323.15 K, 101 kPa, x2 = 0.901) was 3.005 ± 0.27 mPa·s.
